The values that follow come from US11980609B2, “LPA receptor antagonists and uses thereof” (Gilead Sciences, Inc., priority 2021, dated 2024).

Molecules are shown by their SMILES.

The target in this experiment is T1, human LPAR1 (Homo sapiens, UniProt Q92633).
T1 construct: host or cells: CHO-K1
T1 sequence (Q92633 whole entry): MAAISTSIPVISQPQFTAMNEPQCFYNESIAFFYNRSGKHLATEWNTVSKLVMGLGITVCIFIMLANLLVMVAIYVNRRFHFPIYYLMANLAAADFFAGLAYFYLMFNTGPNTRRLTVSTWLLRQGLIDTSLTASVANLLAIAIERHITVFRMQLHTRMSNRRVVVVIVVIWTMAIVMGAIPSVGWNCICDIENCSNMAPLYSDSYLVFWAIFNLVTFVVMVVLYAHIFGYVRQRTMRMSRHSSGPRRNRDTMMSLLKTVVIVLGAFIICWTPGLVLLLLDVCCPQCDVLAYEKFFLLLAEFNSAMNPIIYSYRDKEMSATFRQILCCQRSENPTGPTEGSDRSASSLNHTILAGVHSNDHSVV
Kind of experiment: LPAR1 intracellular calcium mobilization assay (antagonist mode). Format: cell-based. Particulars: CHO-K1 EDG2 cells expressing human LPAR1; 60 min pre-incubation with compound (0.5 nM to 10 μM), then LPA 18:2 challenge; FLIPR Tetra calcium signal. How it is done: In vitro LPAR1 activity was measured in an intracellular calcium mobilization assay.
CHO-K1 EDG2 cells (DiscoverX cat #93-0644C2) expressing human LPAR1 (NM_001401.3) were seeded in a total volume of 25 μL of Dulbecco's Modification of Eagle's Medium (DMEM) with 10% Fetal Bovine Serum, 1× PenStrepGlutamine, 300 μg/ml Hygromycin, and 800 μg/ml G418 into 384-well tissue culture plate (Grenier #781091) at 15,000 cells/well and incubated at 37° C. overnight. Prior to testing, 25 μL Calcium Loading Dye Component A (FLIPR Calcium 6 Assay Kit Molecular Device #R8190) and 2.5 mM Probenecid (Invitrogen #P36400, prepared fresh) in Hank's Balanced Salt Solution (Corning #21-023-CV), 20 mM HEPES (Corning #25-060-CI), 0.1% Bovine Serum Albumin (Sigma-Aldrich #A7906-500G) was add to the cells for 60 minutes at 37° C.
Agonist dose curves of LPA 18:2 (Avanti Polar Lipids cat #857138, 0.5 nM to 10 μM) were recorded to determine the LPA 18:2 EC80 for subsequent antagonist assays. For agonist dose curves, cells were removed from the incubator 2 hours after dye loading and transferred to the FLIPR Tetra instrument (Molecular Devices, San Jose, CA). Calcium mobilization was monitored for 5 min and 10 μL 6×LPA in HBSS/20 mM Hepes/0.1% bovine serum albumin (BSA) was added to the cells 5 seconds into the assay.
To determine the LPAR1 antagonist activity of test compounds, cells were pre-incubated with test compound at a dose range of 0.5 nM to 10 μM, followed by LPA at […] concentration (100 nM). After dye loading, cells were removed from the incubator and 0.3 μL of 200× antagonist was added. Cells were incubated for 60 minutes at 37° C. Antagonist activity was measured on a FLIPR Tetra. Calcium mobilization was monitored for 3.5 minutes and 10 μL 6×EC80 LPA in HBSS, 20 mM HEPES, and 0.1% BSA was added to the cells 5 seconds into the assay. Signal amplitude (Maximum minus minimum) values were plotted against log10 of antagonist concentration using Dose Response Tool (Gilead Sciences Inc.) to determine EC50.
To assess the antagonistic potential of exemplified compounds EC50 values were determined for Compounds 1 to 55 in the LPAR1 calcium mobilization assay. The compound numbers correspond to the compound numbers in Examples 1 to 35. N/A=not available.
For orientation: Calcium flux is commonly read through the fluorescence of an indicator in the cells.
Turning to `C[C@@H](OC(=O)Nc1c(-c2ncc(NC(=O)c3cnc(C(F)(F)F)nc3)cn2)cnn1C)c1cc(F)cnc1F` [Compound 22, (R)-1-(2,5-difluoropyridin-3-yl)ethyl (1-methyl-4-(5-(2-(trifluoromethyl)pyrimidine-5-carboxamido)pyrimidin-2-yl)-1H-pyrazol-5-yl)carbamate], the EC50 is 8.9 nM.

Regarding `C[C@@H](OC(=O)Nc1c(-c2ncc(NC(=O)[C@@H]3C[C@H]3C(F)(F)F)cn2)cnn1C)c1cccnc1F` [Compound 40, (R)-1-(2-fluoropyridin-3-yl)ethyl (1-methyl-4-(5-((1R,2R)-2-(trifluoromethyl)cyclopropane-1-carboxamido)pyrimidin-2-yl)-1H-pyrazol-5-yl)carbamate], the half-maximal effective concentration (EC50) is less than 4.6 nM.

As to `C[C@@H](OC(=O)Nc1c(-c2ncc(C(=O)NC34CC(C#N)(C3)C4)cn2)cnn1C)c1cc(F)cnc1F` [Compound 46, (R)-1-(2,5-difluoropyridin-3-yl)ethyl (4-(5-((3-cyanobicyclo[1.1.1]pentan-1-yl)carbamoyl)pyrimidin-2-yl)-1-methyl-1H-pyrazol-5-yl)carbamate], the EC50 was found to be 158 nM.

Take `C[C@@H](OC(=O)Nc1c(-c2ncc(NC(=O)C3CC(F)(F)C3)cn2)cnn1C)c1cc(F)cnc1F` [Compound 36, (R)-1-(2,5-difluoropyridin-3-yl)ethyl (4-(5-(3,3-difluorocyclobutane-1-carboxamido)pyrimidin-2-yl)-1-methyl-1H-pyrazol-5-yl)carbamate]: the EC50 is 18.6 nM.

For `C[C@@H](OC(=O)Nc1c(-c2ncc(NC(=O)c3ccc(C(F)(F)F)nc3)cn2)cnn1C)c1cc(F)cnc1F` [Compound 27, (R)-1-(2,5-difluoropyridin-3-yl)ethyl (1-methyl-4-(5-(6-(trifluoromethyl)nicotinamido)pyrimidin-2-yl)-1H-pyrazol-5-yl)carbamate], the EC50 came to 28 nM.

For the molecule `C[C@@H](OC(=O)Nc1c(-c2ncc(O)cn2)cnn1C)c1cccnc1Cl` [Compound 44, (R)-1-(2-chloropyridin-3-yl)ethyl (4-(5-hydroxypyrimidin-2-yl)-1-methyl-1H-pyrazol-5-yl)carbamate], the EC50 was 120 nM.

As to `C[C@@H](OC(=O)Nc1c(-c2ncc(OS(C)(=O)=O)cn2)cnn1C)c1cc(F)cnc1Cl` [Compound 6, (R)-2-(5-(((1-(2-chloro-5-fluoropyridin-3-yl)ethoxy)carbonyl)amino)-1-methyl-1H-pyrazol-4-yl)pyrimidin-5-yl methanesulfonate], the concentration giving a half-maximal response (EC50) was found to be 14.1 nM.

In the case of `C[C@@H](OC(=O)Nc1c(-c2ncc(NC(=O)C3(C(F)F)CC3)cn2)cnn1C)c1cc(F)cnc1F` [Compound 28, (R)-1-(2,5-difluoropyridin-3-yl)ethyl (4-(5-(1-(difluoromethyl)cyclopropane-1-carboxamido)pyrimidin-2-yl)-1-methyl-1H-pyrazol-5-yl)carbamate], the EC50 came to 216 nM.

For `C[C@@H](OC(=O)Nc1c(-c2ncc(NC(=O)C3(C(F)F)CC3)cn2)cnn1C)c1cc(F)cnc1Cl` [Compound 25, (R)-1-(2-chloro-5-fluoropyridin-3-yl)ethyl (4-(5-(1-(difluoromethyl)cyclopropane-1-carboxamido)pyrimidin-2-yl)-1-methyl-1H-pyrazol-5-yl)carbamate], the EC50 turned out to be 60.5 nM.

Consider `C[C@@H](OC(=O)Nc1c(-c2ncc(NC(=O)C34CC(C(F)F)(C3)C4)cn2)cnn1C)c1cc(F)cnc1F` [Compound 31, (R)-1-(2,5-difluoropyridin-3-yl)ethyl (4-(5-(3-(difluoromethyl)bicyclo[1.1.1]pentane-1-carboxamido)pyrimidin-2-yl)-1-methyl-1H-pyrazol-5-yl)carbamate], for which the 50% effective concentration (EC50) is 23.7 nM.

As to `C[C@@H](OC(=O)Nc1c(-c2ncc(NC(=O)C34CC(F)(C3)C4)cc2F)cnn1C)c1cc(F)cnc1F` [Compound 16, (R)-1-(2,5-difluoropyridin-3-yl)ethyl (4-(3-fluoro-5-(3-fluorobicyclo[1.1.1]pentane-1-carboxamido)pyridin-2-yl)-1-methyl-1H-pyrazol-5-yl)carbamate], the EC50 was found to be 15.8 nM.

For the molecule `Cc1nc(-c2cnn(C)c2NC(=O)O[C@H](C)c2cccnc2Cl)ncc1O` [Compound 4, (R)-1-(2-chloropyridin-3-yl)ethyl (4-(5-hydroxy-4-methylpyrimidin-2-yl)-1-methyl-1H-pyrazol-5-yl)carbamate], the EC50 came out at 167 nM.

Regarding `C[C@@H](OC(=O)Nc1c(-c2ncc(OS(C)(=O)=O)cn2)cnn1C)c1cccnc1Cl` [Compound 9, (R)-2-(5-(((1-(2-chloropyridin-3-yl)ethoxy)carbonyl)amino)-1-methyl-1H-pyrazol-4-yl)pyrimidin-5-yl methanesulfonate], the EC50 came out at 42.9 nM.

For `C[C@@H](OC(=O)Nc1c(-c2ncc(NC(=O)C3(C#N)CC3)cn2)cnn1C)c1cc(F)cnc1Cl` [Compound 23, (R)-1-(2-chloro-5-fluoropyridin-3-yl)ethyl (4-(5-(1-cyanocyclopropane-1-carboxamido)pyrimidin-2-yl)-1-methyl-1H-pyrazol-5-yl)carbamate], the EC50 amounted to 16.8 nM.

As to `C[C@@H](OC(=O)Nc1c(-c2ccc(NC(=O)C3(C#N)CC3)cn2)cnn1C)c1cc(F)cnc1F` [Compound 19, (R)-1-(2,5-difluoropyridin-3-yl)ethyl (4-(5-(1-cyanocyclopropane-1-carboxamido)pyridin-2-yl)-1-methyl-1H-pyrazol-5-yl)carbamate], the EC50 was 763 nM.

On to `C[C@@H](OC(=O)Nc1c(-c2ncc(NC(=O)C3(C)CC(F)(F)C3)cn2)cnn1C)c1cc(F)cnc1F` [Compound 35, (R)-1-(2,5-difluoropyridin-3-yl)ethyl (4-(5-(3,3-difluoro-1-methylcyclobutane-1-carboxamido)pyrimidin-2-yl)-1-methyl-1H-pyrazol-5-yl)carbamate], for which the EC50 was found to be 14 nM.

In the case of `C[C@@H](OC(=O)Nc1c(-c2ncc(OC(F)F)cn2)cnn1C)c1cc(F)cnc1F` [Compound 55, (R)-1-(2,5-difluoropyridin-3-yl)ethyl (4-(5-(difluoromethoxy)pyrimidin-2-yl)-1-methyl-1H-pyrazol-5-yl)carbamate], the EC50 worked out at 1780 nM.

For the molecule `COC1(C#N)CC(C(=O)Nc2cnc(-c3cnn(C)c3NC(=O)O[C@H](C)c3cc(F)cnc3F)nc2)C1` (stereo partly drawn) [Compound 43, (R)-1-(2,5-difluoropyridin-3-yl)ethyl (4-(5-(3-cyano-3-methoxycyclobutane-1-carboxamido)pyrimidin-2-yl)-1-methyl-1H-pyrazol-5-yl)carbamate], the concentration for a half-maximal effect (EC50) is 22.6 nM.

Turning to `C[C@@H](OC(=O)Nc1c(-c2ncc(OS(C)(=O)=O)cn2)cnn1C)c1cccnc1F` [Compound 8, (R)-2-(5-(((1-(2-fluoropyridin-3-yl)ethoxy)carbonyl)amino)-1-methyl-1H-pyrazol-4-yl)pyrimidin-5-yl methanesulfonate], the EC50 was determined as 523 nM.

As to `C[C@@H](OC(=O)Nc1c(-c2ncc(NC(=O)[C@]3(C)C[C@@H](C#N)C3)cn2)cnn1C)c1cc(F)cnc1F` [Compound 38, (R)-1-(2,5-difluoropyridin-3-yl)ethyl (4-(5-((1r,3R)-3-cyano-1-methylcyclobutane-1-carboxamido)pyrimidin-2-yl)-1-methyl-1H-pyrazol-5-yl)carbamate], the EC50 stood at 52.7 nM.

With `C[C@@H](OC(=O)Nc1c(-c2ncc(O)cn2)cnn1C)c1cc(F)cnc1F` [Compound 45, (R)-1-(2,5-difluoropyridin-3-yl)ethyl (4-(5-hydroxypyrimidin-2-yl)-1-methyl-1H-pyrazol-5-yl)carbamate], the EC50 came out at 301 nM.

For orientation: EC50 means the concentration needed to bring the measured effect to its halfway point.
